Laboratory results published in publication PMC9015904 (ChemMedChem, 2022).
Like-named read-outs stand apart in the source and are kept apart here. Marks after values point to notes of the source that are not given here.

Assays:
[1] = molecular target: T1, hMOR (Homo sapiens, UniProt P35372); experiment: GTPγS functional assay, MOR; type: biochemical
[2] = molecular target: T2, hKOR (Homo sapiens, UniProt P41145); experiment: biochemical; type: binding
[3] = molecular target: T3, hDOR (Homo sapiens, UniProt P41143); experiment: GTPγS functional assay, DOR; type: biochemical
[4] = molecular target: T3, hDOR; experiment: Competitive radioligand binding assay, DOR
[5] = molecular target: T2, hKOR; experiment: biochemical; type: biochemical
[6] = molecular target: T1, hMOR; experiment: biochemical; type: binding
[7] = system: male C57BL/6NHsd mice; conditions: mouse, in vivo
[8] = system: male C57BL/6NHsd mice; conditions: mouse, in vivo; remark: listed apart in the source
[9] = system: male C57BL/6NHsd mice; conditions: mouse, in vivo; remark: listed apart in the source

T2 sequence (P41145 whole entry): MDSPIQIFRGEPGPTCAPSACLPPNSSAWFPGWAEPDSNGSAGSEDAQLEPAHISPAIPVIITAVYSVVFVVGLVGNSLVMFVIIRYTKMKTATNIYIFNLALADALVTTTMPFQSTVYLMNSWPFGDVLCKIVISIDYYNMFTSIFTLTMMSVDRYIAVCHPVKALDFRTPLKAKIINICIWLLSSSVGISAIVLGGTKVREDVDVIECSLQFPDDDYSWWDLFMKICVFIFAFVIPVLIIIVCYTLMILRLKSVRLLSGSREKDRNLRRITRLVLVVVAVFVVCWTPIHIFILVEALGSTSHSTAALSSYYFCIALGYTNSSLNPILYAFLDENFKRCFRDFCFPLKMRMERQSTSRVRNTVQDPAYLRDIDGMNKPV
T3 sequence (P41143 whole entry): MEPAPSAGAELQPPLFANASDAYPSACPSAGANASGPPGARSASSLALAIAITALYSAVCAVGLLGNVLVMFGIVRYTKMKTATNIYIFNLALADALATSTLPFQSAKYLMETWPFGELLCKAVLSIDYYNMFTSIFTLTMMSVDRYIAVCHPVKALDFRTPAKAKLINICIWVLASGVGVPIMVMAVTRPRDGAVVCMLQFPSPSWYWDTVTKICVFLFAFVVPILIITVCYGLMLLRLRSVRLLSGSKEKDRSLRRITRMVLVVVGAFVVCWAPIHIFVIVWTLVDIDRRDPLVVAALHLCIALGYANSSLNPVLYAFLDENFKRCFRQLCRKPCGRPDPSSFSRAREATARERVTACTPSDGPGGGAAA
T1 sequence (P35372 whole entry): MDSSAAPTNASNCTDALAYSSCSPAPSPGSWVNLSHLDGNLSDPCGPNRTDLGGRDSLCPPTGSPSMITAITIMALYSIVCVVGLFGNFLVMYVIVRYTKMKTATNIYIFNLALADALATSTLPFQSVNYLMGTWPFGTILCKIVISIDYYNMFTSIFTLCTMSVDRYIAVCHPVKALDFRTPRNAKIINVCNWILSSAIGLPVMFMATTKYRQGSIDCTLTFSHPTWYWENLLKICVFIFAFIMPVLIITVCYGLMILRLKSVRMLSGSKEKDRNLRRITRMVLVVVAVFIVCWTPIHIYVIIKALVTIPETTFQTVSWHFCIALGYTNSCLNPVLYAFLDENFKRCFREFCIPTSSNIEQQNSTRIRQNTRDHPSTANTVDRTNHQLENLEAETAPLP

SMILES | Kd [2] [nM] | Full or partial agonist (KOR) [5] | Kd [6] [nM] | EC50 [1] [nM] | EC50 [5] [nM] | further results
COC(=O)[C@@H]1C[C@H](OC(=O)C2=Cc3ccccc3C2)C(=O)[C@H]2[C@@]1(C)CC[C@H]1C(=O)O[C@H](c3ccoc3)C[C@]21C [Compound 2, Methyl-(2S,4aR,6aR,7R,9S,10aS,10bR)-9-((1H-indene-2-carbonyl)oxy)-2-(furan-3-yl)-6a,10b-dimethyl-4,10-dioxododecahydro-2H-benzo[f]isochromene-7-carboxylate] | 49.7 | 853 (456–1600)^[d] | 538 | – | – | fold higher potency at MOR (vs KOR) ([1]; from GTPγS EC50 values): 17 fold; fold preference towards KOR (binding affinity, KOR vs MOR) [2]: 11 fold; EC50 [3]: 2350 nM; Kd [4]: 714 nM; distance traveled in the maze compared to vehicle ([7]; male, C57BL/6NHsd): neither salvinorin A, nor compound 2, altered the distance; time spent in the open arms compared to vehicle [7]: significantly increased the amount of time spent on the open arms of the maze; latency to hind paw lick or flutter compared to vehicle [8]: significant increase in the latency to paw response; latency to tail withdrawal compared to vehicle [9]: Neither salvinorin A, herkinorin, nor compounds 2 or 10 demonstrated significant antinociception
CN1CC[C@]23c4c5ccc(O)c4O[C@H]2[C@@H](O)C=C[C@H]3[C@H]1C5 [Morphine, reference compound] | – | – | – | – | – | latency to hind paw lick or flutter compared to vehicle [8]: significant increase in the latency to paw response; latency to tail withdrawal compared to vehicle [9]: significantly increased the latency to tail withdrawal
COC(=O)[C@@H]1C[C@H](OC(=O)c2cc3c(F)cccc3[nH]2)C(=O)[C@H]2[C@@]1(C)CC[C@H]1C(=O)O[C@H](c3ccoc3)C[C@]21C [Compound 7, (2S,4aR,6aR,7R,9S,10aS,10bR)-2-(furan-3-yl)-7-(methoxycarbonyl)-6a,10b-dimethyl-4,10-dioxododecahydro-2H-benzo[f]isochromen-9-yl 4-fluoro-1H-indole-2-carboxylate] | 57.3 | 877 (564–1360)^[d] | 13.1 | 211 | 877 | –
COC(=O)[C@@H]1C[C@H](OC(=O)c2cc3cccc(F)c3[nH]2)C(=O)[C@H]2[C@@]1(C)CC[C@H]1C(=O)O[C@H](c3ccoc3)C[C@]21C [Compound 10, (2S,4aR,6aR,7R,9S,10aS,10bR)-2-(furan-3-yl)-7-(methoxycarbonyl)-6a,10b-dimethyl-4,10-dioxododecahydro-2H-benzo[f]isochromen-9-yl 7-fluoro-1H-indole-2-carboxylate] | 53.8 | 36.5 (13.6–98.2)^[d] | 58.4 | 132 | 36.5 | fold preference towards KOR (binding affinity, KOR vs MOR) [2]: equal binding affinity towards KOR and MOR; fold higher potency at KOR (vs MOR) [5]: ~ 4 fold; distance traveled in the maze compared to vehicle [7]: reduction in the total distance traveled; time spent in the open arms compared to vehicle [7]: Neither herkinorin nor compound 10 significantly influenced anxiety-like behavior; latency to hind paw lick or flutter compared to vehicle [8]: Neither salivinorin A, herkinorin, nor compound 10 were observed to significantly influence the latency to paw response; latency to tail withdrawal compared to vehicle [9]: Neither salvinorin A, herkinorin, nor compounds 2 or 10 demonstrated significant antinociception
COC(=O)[C@@H]1C[C@H](OC(=O)c2n[nH]c3ccccc23)C(=O)[C@H]2[C@@]1(C)CC[C@H]1C(=O)O[C@H](c3ccoc3)C[C@]21C [Compound 5, (2S,4aR,6aR,7R,9S,10aS,10bR)-2-(furan-3-yl)-7-(methoxycarbonyl)-6a,10b-dimethyl-4,10-dioxododecahydro-2H-benzo[f]isochromen-9-yl 1H-indazole-3-carboxylate] | – | – | 208 | > 10000 | – | –
COC(=O)[C@@H]1C[C@H](OC(=O)[C@@H]2Cc3ccccc3N2)C(=O)[C@H]2[C@@]1(C)CC[C@H]1C(=O)O[C@H](c3ccoc3)C[C@]21C [Compound 14, (2S,4aR,6aR,7R,9S,10aS,10bR)-2-(furan-3-yl)-7-(methoxycarbonyl)-6a,10b-dimethyl-4,10-dioxododecahydro-2H-benzo[f]isochromen-9-yl (S)-indoline-2-carboxylate] | 32.1 | 361 (216–602)^[d] | 77.9 | > 10000 | 361 | fold preference towards KOR (binding affinity, KOR vs MOR) [2]: ~ 2 fold
COC(=O)[C@@H]1C[C@H](OC(=O)c2cc3cc(F)ccc3[nH]2)C(=O)[C@H]2[C@@]1(C)CC[C@H]1C(=O)O[C@H](c3ccoc3)C[C@]21C [Compound 8, (2S,4aR,6aR,7R,9S,10aS,10bR)-2-(furan-3-yl)-7-(methoxycarbonyl)-6a,10b-dimethyl-4,10-dioxododecahydro-2H-benzo[f]isochromen-9-yl 5-fluoro-1H-indole-2-carboxylate] | 97.8 | 1110 (441–2790)^[c] | – | – | 1110 | binding affinity towards MOR, in words [6]: loss of binding affinity to MOR
COC(=O)[C@@H]1C[C@H](OC(=O)c2nc3ccccc3s2)C(=O)[C@H]2[C@@]1(C)CC[C@H]1C(=O)O[C@H](c3ccoc3)C[C@]21C [Compound 11, (2S,4aR,6aR,7R,9S,10aS,10bR)-2-(furan-3-yl)-7-(methoxycarbonyl)-6a,10b-dimethyl-4,10-dioxododecahydro-2H-benzo[f]isochromen-9-yl benzo[d]thiazole-2-carboxylate] | 91.7 | 294 (179–482)^[d] | – | – | 294 | binding affinity towards KOR, in words [2]: exhibited selective affinity towards KOR
COC(=O)[C@@H]1C[C@H](OC(=O)[C@H]2Cc3ccccc3N2)C(=O)[C@H]2[C@@]1(C)CC[C@H]1C(=O)O[C@H](c3ccoc3)C[C@]21C [Compound 13, (2S,4aR,6aR,7R,9S,10aS,10bR)-2-(furan-3-yl)-7-(methoxycarbonyl)-6a,10b-dimethyl-4,10-dioxododecahydro-2H-benzo[f]isochromen-9-yl (R)-indoline-2-carboxylate] | 130 | 2260 (1360–3760)^[c] | 9.04 | 840 | 2260 | fold preference towards MOR (binding affinity, MOR vs KOR) [6]: 14 fold
COC(=O)[C@@H]1C[C@H](OC(=O)c2nc3ccccc3[nH]2)C(=O)[C@H]2[C@@]1(C)CC[C@H]1C(=O)O[C@H](c3ccoc3)C[C@]21C [Compound 6, (2S,4aR,6aR,7R,9S,10aS,10bR)-2-(furan-3-yl)-7-(methoxycarbonyl)-6a,10b-dimethyl-4,10-dioxododecahydro-2H-benzo[f]isochromen-9-yl 1H-benzo[d]imidazole-2-carboxylate] | – | – | 83.2 | > 10000 | – | binding affinity towards MOR, in words [6]: exhibited selective affinity towards MOR
COC(=O)[C@@H]1C[C@H](OC(=O)c2cc3ccccn3c2)C(=O)[C@H]2[C@@]1(C)CC[C@H]1C(=O)O[C@H](c3ccoc3)C[C@]21C [Compound 12, (2S,4aR,6aR,7R,9S,10aS,10bR)-2-(furan-3-yl)-7-(methoxycarbonyl)-6a,10b-dimethyl-4,10-dioxododecahydro-2H-benzo[f]isochromen-9-yl indolizine-2-carboxylate] | 18.4 | 1560 (213–11500)^[c] | 1390 | 200 | 1560 | EC50 [3]: 742 nM; Kd [4]: 480 nM
COC(=O)[C@@H]1C[C@H](OC(=O)c2cc3ccc(F)cc3[nH]2)C(=O)[C@H]2[C@@]1(C)CC[C@H]1C(=O)O[C@H](c3ccoc3)C[C@]21C [Compound 9, (2S,4aR,6aR,7R,9S,10aS,10bR)-2-(furan-3-yl)-7-(methoxycarbonyl)-6a,10b-dimethyl-4,10-dioxododecahydro-2H-benzo[f]isochromen-9-yl 6-fluoro-1H-indole-2-carboxylate] | 17 | 419 (240–729)^[c] | 39.7 | 973 | 419 | –
COC(=O)[C@@H]1C[C@H](OC(=O)C2=CCc3ccccc32)C(=O)[C@H]2[C@@]1(C)CC[C@H]1C(=O)O[C@H](c3ccoc3)C[C@]21C [Compound 1, Methyl-(2S,4aR,6aR,7R,9S,10aS,10bR)-9-((1H-indene-3-carbonyl)oxy)-2-(furan-3-yl)-6a,10b-dimethyl-4,10-dioxododecahydro-2H-benzo[f]isochromene-7-carboxylate] | 62.3 | 1570 (548–4500)^[c] | 531 | > 10000 | 1570 | –
COC(=O)[C@@H]1C[C@H](OC(=O)C2Cc3ccccc3C2)C(=O)[C@H]2[C@@]1(C)CC[C@H]1C(=O)O[C@H](c3ccoc3)C[C@]21C [Compound 3, Methyl-(2S,4aR,6aR,7R,9S,10aS,10bR)-9-((2,3-dihydro-1H-indene-2-carbonyl)oxy)-2-(furan-3-yl)-6a,10b-dimethyl-4,10-dioxododecahydro-2H-benzo[f]isochromene-7-carboxylate] | 1270 | 3000 (409–22000)^[d] | 3020 | > 10000 | 3000 | –
COC(=O)[C@@H]1C[C@H](OC(=O)c2nc3ccccc3o2)C(=O)[C@H]2[C@@]1(C)CC[C@H]1C(=O)O[C@H](c3ccoc3)C[C@]21C [Compound 4, (2S,4aR,6aR,7R,9S,10aS,10bR)-2-(furan-3-yl)-7-(methoxycarbonyl)-6a,10b-dimethyl-4,10-dioxododecahydro-2H-benzo[f]isochromen-9-yl benzo[d]oxazole-2-carboxylate] | – | – | – | – | – | binding affinity towards KOR, in words [2]: exhibited no affinity to any of the opioid receptors; binding affinity towards DOR, in words [4]: exhibited no affinity to any of the opioid receptors; binding affinity towards MOR, in words [6]: exhibited no affinity to any of the opioid receptors
